This test concerns the target GGT (gamma glutamyl transpeptidase) of H. pylori ATCC 43504 cells (Helicobacter pylori, UniProt O25743). Briefly: Cell Based GGT Inhibitor (CBGI) Assay. The note with it: whole H. pylori ATCC 43504 cells, ~30 min room temperature, AMC release fluorescence; table titled 'Binding Data of GGT Modulating Compounds'. As for the experimental part: Cell Based GGT Inhibitor Assay
The protocol of the Cell Based GGT Inhibitor Assay (CBGI assay) is adapted from the Methods in Enzymology protocol 252: 66 (1995).
H. pylori Sample Preparation
H. pylori ATCC 43504 were grown on blood agar plates. For accurate results, the H. pylori cells were in a logarithmic, spiral phase. This was achieved by plating cells from a culture that was >75% spiral in a phosphate buffered saline (PBS) solution on blood agar plates and incubating them overnight in microaerophilic conditions at 37° C. The next day, the cells were harvested by adding 1 ml of PBS to the plate and scraping off cells gently with a loop. The cells were then placed in a sterile 50 ml conical tube and the plate was washed ˜5 times with 1 ml of PBS. The washes were then pooled in the same 50 ml tube. An OD600 was subsequently taken using PBS as the blank. The cells were then resuspended to reach a final OD600 of 0.05. A single blood agar plate typically yields approximately 50-75 mls of cells at A600 OD=0.05. 3 mls of cells at OD=0.05 are required for each 96-well plate; 30 μl added to each well yields a final OD of 0.015. 4-5 blood agar plates would yield more than enough H. pylori cells for 50 96-well microtitre plates.
On each test plate, two known inhibitors were added to separate control wells (4 μl 0.25 mM azaserine and 4 μl 1.25 mM γ-glu-hydroxamate). Control wells containing only cells were also included on each test plate. In each well, 70 μl of buffer was added using an automated dispenser. Then, 30 μl H. pylori cells were added at OD A600=0.05. After the cells were added to each well, the plate was kept at room temperature for ˜30 minutes. The reaction was terminated by dispensing 75 μl 100 mM glycine to each well.
GGT inhibition was determined by analyzing the release of amido-4-methylcoumarin (AMC) at A460 nm after excitation at A360 in Cytoflour//Walloc fluorescent plate reader. The data was compared to the average of the two control wells from each plate and the γ-glu-hydroxamate control, which should always be ˜50%. Any compound that inhibited ≦50% activity was retested.
Sequence of GGT (gamma glutamyl transpeptidase) of H. pylori ATCC 43504 cells (O25743 entry or part of it): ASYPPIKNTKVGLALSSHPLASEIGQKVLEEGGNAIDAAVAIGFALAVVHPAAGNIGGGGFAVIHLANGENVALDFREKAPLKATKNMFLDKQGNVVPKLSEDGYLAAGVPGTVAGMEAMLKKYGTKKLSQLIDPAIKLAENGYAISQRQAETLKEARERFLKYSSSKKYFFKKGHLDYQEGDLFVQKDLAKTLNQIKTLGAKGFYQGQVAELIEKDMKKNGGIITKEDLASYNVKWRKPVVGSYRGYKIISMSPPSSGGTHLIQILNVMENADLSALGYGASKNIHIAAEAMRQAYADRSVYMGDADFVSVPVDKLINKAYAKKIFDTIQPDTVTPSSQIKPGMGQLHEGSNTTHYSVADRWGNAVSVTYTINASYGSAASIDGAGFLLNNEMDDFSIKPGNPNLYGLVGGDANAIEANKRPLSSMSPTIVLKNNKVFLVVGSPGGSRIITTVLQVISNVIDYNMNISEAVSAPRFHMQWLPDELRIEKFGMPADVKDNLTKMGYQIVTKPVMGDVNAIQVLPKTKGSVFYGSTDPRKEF
Consider `CCN1CCCC(NC(=O)c2ccc(Nc3ccnc4cc5ccccc5cc34)cc2)C1` (stereo not shown) [A], for which the IC50 – broadly, the concentration needed to halve the response being measured – is 1.13 µM.

In turn, `COc1cc(/C=C2/SC(=S)NC2=O)ccc1O` [B] showed an IC50 of 22.4 µM.

For the compound `Cc1nc(-c2nc(C(=O)/C=C/N(C)C)cs2)cs1` [C], the IC50 was in the range of 17.9 to 35.8 µM.

On to `CC(C)OC(=O)CSc1nc2cc(C(=O)NC(Cc3cnc[nH]3)C(N)=O)ccc2n1CCc1c[nH]c2ccccc12` (stereo not shown) [D], for which the IC50 is 4.53 µM.

In turn, `CCN(CC)CCn1c(SCC(=O)c2ccc(-c3ccccc3)cc2)nc2cc(C(=O)NC(Cc3cn(Cc4ccccc4)cn3)C(N)=O)ccc21` (stereo not shown) [E] showed a concentration for half-maximal inhibition (IC50) of 11.2 µM.

With `Cc1ccc(CSc2nnc(/N=C/N(C)C)s2)cc1` [F], the IC50 is 2.02 µM.

As to `COc1cccc(-c2cc3[nH]c(C)cc(=O)n3n2)c1` [G], the IC50 is 2.15 µM.

The record behind these values is US6380217B1, “Methods for controlling GGT-positive bacteria” (priority 1999, dated 2002).
